{"source": "patent US6773705B1", "about": "“Methods for diagnosing and treating autoimmune disease” (General Hospital Corporation, priority 1998, dated 2004)", "key": {"[1]": {"target": "NFκBp65-associated protein kinase (nuclear)", "format": "biochemical, human", "details": "GST-CTD substrate, FIG. 1C", "experimental": "(§2) GST-NFκp65 and GST-CTD were expressed in BL21 pLysS E. Coli cells and purified by selective absorption to glutathione sepharose beads. GST-NFκBp65 was incubated with Molt-4 cytosolic and nuclear extracts, prepared as described above. Reaction mixtures were washed in PBS. The precipitated complexes were then incubated with GST-CTD of RNA polymerase II large subunit in kinase buffer containing γ-[^32P]ATP as previously described (Hayashi et al., 1993, J. Biol. Chem., 268: 26790-26795; Faustman et al., 1989, Diabetes, 38: 1462-1468). One-fortieth of the input (I) and supernatant (S) fractions and 1/40 of the last wash (W) and pellet (P) fractions were used for in vitro kinase reaction. Protein complexes were collected by brief centrifugation, washed and then incubated with GST-CTD substrates in kinase buffer containing y-^32P ATP. The products of the in vitro kinase reactions were then analyzed on SDS-PAGE. […] To determine whether the kinase activity of NFκBp65-associated protein kinase were sensitive to DRB, the ability of DRB to inhibit the kinase activity of NFκBp65 association protein kinase was tested by examining the phosphorylation of CTD in the presence of different concentrations of DRB. […] Quantitation of the gel shown in FIG. 1C with an image analyzer (a BAS 3000 phosphorimager) was plotted on a graph. […]"}, "[2]": {"target": "T1, NFκBp65-associated protein kinase (cytosolic)", "T1 construct": "other: cytosolic; GST-C", "test": "In vitro kinase assay, GST-CTD phosphorylation by GST-NFκBp65-precipitated complexes from Molt-4 cytosolic extract", "format": "biochemical, human", "details": "GST-CTD substrate, FIG. 1C", "experimental": "as §2"}, "NF-κB [3]": {"system": "NF-κB", "test": "EMSA of nuclear NF-κB DNA-binding activity in TNF-α-treated cell lines", "format": "cell-based", "details": "TNF-α 10 ng/ml, 4 h, FIG. 11A", "description": "Furthermore, in the […] cell line, in which Lmp2 and Lmp7 genes have been deleted, NF-κB is not activated in response to TNF-α. The effect of TNF-α treatment on the DNA-binding activity of nuclear NF-κB was examined (FIG. 11). EMSA was performed such that cell extracts from mutant T2 cells compared to those of control T1 cells, Molt-4 cells and Jurkat cells after stimulation for 4 h in the absence (−) or presence (+) of 10 ng/ml TNF-α.\n-unlabeled oligonucleotide (κB1). Double-stranded oligodeoxynucleotides were synthesized on a DNA synthesizer by the phosphoramidite method and purified on an OPC cartridge. […] The DNA-protein complexes were resolved by electrophoresis on nondenaturing 8% polyacrylamide gels with 0.5×TBE (Tris-borate-EDTA) buffer at 4° C. For competition experiments, nuclear extracts was incubated for […] at 4° C. with a 100-fold molar excess of unlabeled κB oligonucleotide before addition of the radioactive probe. Cytosolic extracts were treated with 1.2% NP-40 and 0.8% deoxycholate to dissociate IκB from NF-κB before incubation with 3^2P-labeled probe. For supershift assays, nuclear extracts were incubated with specific antibodies in 1 hour at 4° C. before addition of DNA probes. Lanes 1 correspondes to negative controls in which nuclear extract was not added."}, "[4]": {"system": "mouse embryonic fibroblasts (MEF)", "test": "TNF-α cytotoxicity of embryonic fibroblasts (trypan blue exclusion)", "format": "cell-based", "details": "NOD MEF; various TNF-α concentrations 24 hours or 10 ng/ml over time; FIG. 13D", "description": "(§1) DNA fragmentation was evaluated and detected by agarose gel electrophoresis after spleen cells were cultured in 10 ng/ml TNF-α for 24 hours. […] Embryonic fibroblasts prepared from BALB/c and NOD mice were cultured DMEM containing 10% fetal bovine serum and then incubated with various concentrations of TNF-α for 24 hours (FIG. 13D, top) or with TNF-α at 10 ng/ml for the indicated times (FIG. 13D, bottom). Cell viability was assessed by trypan blue exclusion. Data are means±SD of four replicates from a representative experiment, and are expressed as a percentage of the survival value for the corresponding cells not exposed to TNF-α."}, "spleen cells": {"system": "spleen cells", "test": "TNF-α cytotoxicity of spleen cells (viable cell count, DNA fragmentation)", "format": "cell-based, mouse", "description": "One critical function of NFκB is to provide protection to cells from the effects of exogenous TNF-α. […] Spleen cells were cultured for 24 hours after exposure to various concentrations (2, 5, 10 or 20 ng/ml) of TNF-α, as indicated on the X axis of the figure. Viable cells remaining after TNF-α treatment are shown as a percentage of viable control (untreated) cells. Standard deviations were calculated from four independent readings within a single experiment. The survival over time of cells treated with TNF-α is charted in FIG. 13B. Spleen cells were treated with TNF-α (10 ng/ml), and viable cells were counted at various times following treatment as indicated on the X axis of the figure.\nas §1"}, "IκBα": {"system": "IκBα", "test": "Immunoblot of cytosolic IκBα in TNF-α-treated spleen lymphocytes", "format": "cell-based, mouse", "details": "TNF-α 10 ng/ml, FIG. 10B", "description": "The basal expression of NF-κB subunits, IκBa and cyclin-dependent kinases was examined by immunoblot analysis of cytosolic and nuclear extracts of male (M) or female (F) BALB/c and NOD mouse spleen cells (FIG. 10). In these experiments, extracts of spleen cells were subjected to SDS-PAGE on a 12.5% gel under non-reducing conditions. The separated proteins were transferred electrophoretically to a polyvinylidene difluoride (PVDF) membrane which was then incubated for 2 hours at room temperature with TBS-T (20 mM Tris-HCl, pH 7.6; 137 mM NaCl; 0.05% volume/volume Tween 20) containing 8% (weight/volume) bovine serum albumin. The membrane was then incubated for 12 h at 4° C. with TBS-T containing the appropriate polyclonal antibodies, washed 4×5 minutes with TBS-T at room temperature, incubated for 2 hours at room temperature with TBS-T containing alkaline phosphatase-conjugated secondary antibodies, washed five times with TBS-T and subjected to the alkaline phosphatase color reaction. […]\nTo assess the dynamics of IκBα protein expression occurring during lymphocyte activation by TNF-α treatment, subcellular fractions from lymphocytes derived from BALB/c and NOD spleen were treated with 10 ng/ml TNF-α. […] IκBα protein was readily detected in the cytosolic extracts from both unstimulated lymphocytes, BALB/c and NOD. […]"}, "NF-κB [5]": {"system": "NF-κB", "test": "EMSA of NF-κB DNA-binding activity in nuclear extracts of TNF-α-treated spleen cells", "details": "NOD mouse spleen cells (male and female); TNF-α 10 ng/ml, 4 hours; FIG. 8A", "experimental": "In order to assess the influence of TNF-α on NFκB in an in vitro system, a DNA/protein binding assay was undertaken. Nuclear extracts were prepared from BALB/C and NOD mice by methods described above. The binding activities were examined by EMSA with ^32P end-labeled oligonucleotide containing an NFκB recognition sequence. Spleen cells were stimulated with TNF-α treatment (10 ng/ml;+) or without TNF-α treatment (−) and nuclear extracts from the treated cells were prepared 4 hours later. Nuclear extract prepared from spleen cells of BALB/C (lanes 2-5; FIG. 8A) and NOD (lanes 6-9; FIG. 8A) mice and Molt-4 cells (lanes 10 and 11; FIG. 8A) were incubated with DNA probe as follows:\nDouble-stranded κB wt, κB mut or IL-R2α κB oligonucleotides were end-labeled using [α-^32P]dCTP and Klenow polymerase. Binding reactions of the DNA probe with nuclear extracts were performed at 37° C. for minutes in a total volume of 10 μl of buffer containing 10 mM Hepes (H 7.9), 50 mM KCl, 5 mM Tris-HCl (pH 7.0), 1 mM DTT, 15 mM EDTA, 10% (v/v) glycerol, 1.0 μg of poly (dI.dC), and 4 ng of the labeled probe. The DNA-protein complexes were resolved on nondenaturing 8% polyacrylamide gels. Electrophoresis was performed with 0.5×TBE buffer (4.5 mM Tris-HCl, 4.5 mM boric acid, 0.1 mM EDTA) at 4° C. A negative binding control, to which no nuclear extract was added, was run in lane 1. […]"}, "20S proteasome [6]": {"system": "20S proteasome", "details": "MG115 50 μM; Palombella et al., 1994; cited from earlier work"}, "proteasome": {"system": "proteasome", "test": "In vitro p105 processing assay with cytoplasmic extracts of T1, T2, Molt-4 and Jurkat cells", "format": "biochemical", "details": "50 μg MG115; cell line cytoplasmic extracts; FIG. 12G", "description": "The labeled p105 was incubated with the cytosolic extracts of these cell lines (20 or 40 μg of protein at left and center) and the reaction mixtures were incubated with (center; FIGS. 12E, F and G) or without (upper; FIGS. 12E, F and G) 10 mM ATP in a wheat germ extract system (Promega) as above. Incubations were also performed in the absence (−) or presence (+) of 50 μg MG115 (lower; FIGS. 12E, F and G). Lane 1 in all gels presented in FIGS. 12E, F and G corresponds to reaction mixtures without substrate. Incubations were performed at 30° C. for 90 minutes, after which the reaction mixtures were analyzed by SDS-PAGE and autoradiography. […] When p105 was incubated with the cytoplasmic extracts of T1 cells, Molt-4 cells and Jurkat cells in the presence of 10 mM ATP, the mature p50 was detected (FIG. 12F); however, the p50 was not generated by incubation of p105 with the cytoplasmic extracts prepared from T2 cells in the presence of 10 mM ATP (FIG. 12F, lanes 4 and 5). To verify that the maturation processing of p50 in the in vitro reaction was mediated by the proteasome processing pathway, the effect of MG115 on proteasome function was examined."}, "20S proteasome [7]": {"system": "20S proteasome", "test": "In vitro p105/p60Tth processing assay with mouse spleen cytosolic extracts", "format": "biochemical", "details": "MG115 50 μM, FIG. 12A, 12B right", "description": "To investigate whether the altered abundance of p50 in NOD mouse spleen cells could be attributable to defective processing of p105 by the proteasome, the processing of p105 by cytosolic extracts of NOD mouse spleen cells was examined using recombinant p105 or the truncated version p60Tth as substrates. The in vitro p105 processing assay reaction was performed as previously described (Fan and Maniatis, 1991, supra). In brief, p105 and p60Tth expression constructs were subjected to in vitro transcription and translation in a wheat germ extract system (Promega) in the presence of [^35S]methionine. The ^35S-labeled p105 and p60th proteins were immunoprecipitated with polyclonal antibodies to p50 and purified for use as substrates. Each substrate protein was incubated for 90 minutes at 30° C. with spleen cytosolic extract (20 or40 μg of protein) in a final volume of 25 μl in the absence or presence of 10 mM ATP (Palombella et al., 1994, supra). The proteasome inhibitor MG115 was also added to the reaction mixture where indicated (FIG. 12). The processed proteins were separated by SDS-polyacrylamide gel electrophoresis (PAGE) on a 10% gel and visualized by autoradiography. […] When p60Tth was incubated with cytosolic extracts of BALB/c cells in the presence of […], mature p50 was generated (FIG. 12A, center). […]"}}, "note": "Square brackets hold non-standard residues; d marks the D form. Peptide text beside a SMILES is read from it. * marks the point of attachment. Nva = CCC[C@H](N)C(=O)O; Cbz = O=C(OCc1ccccc1)*"}
{"compound": "OC[C@H]1O[C@@H](n2cnc3cc(Cl)c(Cl)cc32)[C@H](O)[C@@H]1O", "note": "[DRB, 5,6-dichloro-1-β-D-ribofuranosylbenzimidazole]", "values": [{"measurement": "concentration required for 50% inhibition of the activity of NFκBp65-associated protein kinase", "setting": "[1]", "result": 1, "unit": "µM"}, {"measurement": "concentration required for 50% inhibition of the activity of NFκBp65-associated protein kinase", "setting": "[2]", "result": 10, "unit": "µM"}]}
{"compound": "TNF-α", "values": [{"measurement": "expression of the active nuclear form of NF-κB on EMSA", "setting": "NF-κB [3]; T1, Molt-4 and Jurkat cells", "result": "markedly detected"}, {"measurement": "NF-κB activity", "setting": "NF-κB [3]; T2 cells (Lmp2, Lmp7 deleted)", "result": "not induced"}, {"measurement": "cellular toxicity", "setting": "[4]", "result": "no cellular toxicity"}, {"measurement": "DNA fragmentation by agarose gel electrophoresis", "setting": "spleen cells; NOD but not BALB/c spleen cells, TNF-α 10 ng/ml, 24 hours, FIG. 13C", "result": "resulted in apoptosis"}, {"measurement": "toxicity, cell survival", "setting": "spleen cells; NOD spleen cells, TNF-α 2-20 ng/ml, 24 hours, or 10 ng/ml over time, FIG. 13A, 13B", "result": "toxic"}, {"measurement": "time to disappearance of cytosolic IκBα", "setting": "IκBα; BALB/c lymphocytes", "result": "≤ 40", "unit": "min"}, {"measurement": "cytosolic IκBα during TNF-α treatment", "setting": "IκBα; NOD lymphocytes", "result": "clearly detected after 40 minutes of stimulation and then stably expressed"}, {"measurement": "NF-κB activation", "setting": "NF-κB [5]", "result": "only slightly induced"}]}
{"compound": "CCC[C@@H](C=O)NC(=O)[C@H](CC(C)C)NC(=O)[C@H](CC(C)C)NC(=O)OCc1ccccc1", "note": "[MG115] (Cbz-Leu-Leu-[Nva]-aldehyde)", "values": [{"measurement": "processing of p105", "setting": "20S proteasome [6]", "result": "prevent the processing of p105"}, {"measurement": "p105 processing to p50", "setting": "proteasome", "result": "clearly resulted in defective p105 processing"}, {"measurement": "processing of p105 and p60Tth", "setting": "20S proteasome [7]", "result": "completely inhibited"}]}
